{"source": "patent US20150125457A1", "about": "“BONE REPAIR PROMOTER” (DAIICHI SANKYO COMPANY, LIMITED, priority 2012, published 2015)", "format_in_all_cases": "in vivo", "key": {"rat femur fracture model [1]": {"test_system": "rat femur fracture model", "assay": "Rat femur fracture model (surgically cut femoral diaphysis), three-point bending bone strength test", "conditions": "for Break deformation / Break energy / Break strength / Maximum load / Stiffness (Δ70%-20%) / Break deformation, left/right ratio / Break energy, left/right ratio / Break strength, left/right ratio / Maximum load, left/right ratio / Stiffness (Δ70%-20%), left/right ratio: mean ± SD, N=10; for Break deformation, left/right ratio / Break energy, left/right ratio / Break strength, left/right ratio / Maximum load, left/right ratio / Stiffness (Δ70%-20%), left/right ratio: ratio of left/right femurs", "description": "(§1) A fracture model was surgically prepared at the left femoral diaphysis of a 6-week-old female SD strain (Crl: CD) IGS rat. A barbital-based anesthetic agent (Somnopentyl®, Kyoritsu Seiyaku Corporation) was intraperitoneally administered to an animal in order to anesthetize the animal. Isoflurane (Escain, Mylan Inc.) inhalation anesthesia was performed as an adjunct to anesthesia. The skin on the upside of the knee joint was incised, exfoliation was performed between the rectus femoris muscle and the vastus lateralis muscle to expose the femur. At around 0.5 mm distal from the center of the femoral diaphysis, the diaphysis was completely cut in cross-section by a bone cutter (Osada Equipment Co., Ltd.). After that, an injection needle 21G was inserted into the bone marrow between the greater trochanter and the femur neck of the left femur, and the muscle and the skin were sutured with 2 to 3 stitches. For the prevention of post-operative suppuration, potassium penicillin G for injection (Meiji Seika Kaisha, Limited) was administered as an antibiotic, and the suture site of the skin was disinfected with povidone-iodine (Isodine®, Meiji Seika Kaisha, Limited). As the test substance, CNP derivative A (SEQ ID NO: 13: the SEQ ID NO: 157 of the publication of US patent application US 2010-305031, produced by a method described in the publication) was used for repeated subcutaneous administration at 10 or 100 nmol/kg once per day for 8 weeks. Vehicle was administered to the control group. On the next day after the administration end date, the left and right femurs and the left and right tibiae were resected. For the resected bone, the bone length, and the callus size in the fracture site were measured, the left and right femurs were subjected to soft X-ray radiography, and then the healing state in the fracture site was determined. After that, a three-point bending strength test was performed by using a bone strength measuring device MZ-500S (MARUTO INSTRUMENT CO., LTD.), and a bone strength testing system CTR win Ver. 1.21 (System Supply Co., Ltd.). The bone after finishing the measurements was fixed with 10% neutral buffered formalin, and the pathologic sample was prepared and observed. The administration was performed to a group of 14 rats including spare rats. At 2, 4, and 6 weeks after the administration, one from each of the cases was sampled for follow-up, further the one in the control group, which had shown nonunion-like symptoms, was excluded from the evaluation, and eventually the results were evaluated as a group of 10 rats."}, "rat femur fracture model [2]": {"test_system": "rat femur fracture model", "assay": "Rat femur fracture model, tissue observation in the femur fracture site", "description": "as §1"}, "rat femur fracture model [3]": {"test_system": "rat femur fracture model", "assay": "Rat femur fracture model, soft X-ray radiography of femurs", "conditions": "10 or 100 nmol/kg s.c. once per day for 8 weeks; FIG. 1", "description": "A fracture model was surgically prepared at the left femoral diaphysis of a 6-week-old female SD strain (Crl: CD) IGS rat. A barbital-based anesthetic agent (Somnopentyl®, Kyoritsu Seiyaku Corporation) was intraperitoneally administered to an animal in order to anesthetize the animal. Isoflurane (Escain, Mylan Inc.) inhalation anesthesia was performed as an adjunct to anesthesia. The skin on the upside of the knee joint was incised, exfoliation was performed between the rectus femoris muscle and the vastus lateralis muscle to expose the femur. At around 0.5 mm distal from the center of the femoral diaphysis, the diaphysis was completely cut in cross-section by a bone cutter (Osada Equipment Co., Ltd.). […] For the resected bone, the bone length, and the callus size in the fracture site were measured, the left and right femurs were subjected to soft X-ray radiography, and then the healing state in the fracture site was determined. […] At 2, 4, and 6 weeks after the administration, one from each of the cases was sampled for follow-up, further the one in the control group, which had shown nonunion-like symptoms, was excluded from the evaluation, and eventually the results were evaluated as a group of 10 rats."}, "Sox9 gene": {"test_system": "Sox9 gene", "assay": "Rat closed femur fracture model, cartilage-related marker gene expression (real-time PCR)", "conditions": "0.5 mg/kg/day continuous s.c. (osmotic pump) for one week; 7 days after fracture; normalized to ubiquitin C", "description": "In accordance with the method of Example 2, a rat closed fracture model was prepared. For an animal in a Sham group, a pin only was inserted into the femur, and a bone fracture was not prepared. An administration solution of CNP derivative A was prepared so as to be a dosage corresponding to 0.5 mg/kg/day, and then loaded into an osmotic pump (model 2001, Alzet). The osmotic pump was buried under the skin of the neck back of the animal, and continuous subcutaneous administration was performed for one week. Vehicle was continuously subcutaneously administered to the control group. 7 days after the preparation of the bone fracture, the animal was subjected to isoflurane inhalation anesthesia, retained in a supine position to open the abdomen, and then bled for the euthanasia. The left femur was resected, and immersed into RNAlater (Life Technologies Corporation). The diaphysis or part of the callus was cut out from the femur that had been refrigerated in RNAlater for one day or more. To the cut-out diaphysis or part of the callus, QIAzol (QIAGEN) was added, and the resultant was crushed with tungsten beads. […] The gene expression level was measured by a real-time PCR method using TaqMan Gene Expression Master Mix (Life Technologies Corporation). The measured value was standardized by the gene expression level of ubiquitin-C. […]"}, "[4]": {"conditions": "10 nmol/kg s.c. once per day for 8 weeks, fractured left femur"}, "[5]": {"conditions": "10 nmol/kg s.c. once per day for 8 weeks"}, "[6]": {"conditions": "10 nmol/kg s.c. once per day for 8 weeks, untreated right femur"}, "[7]": {"conditions": "100 nmol/kg s.c. once per day for 8 weeks, fractured left femur"}, "[8]": {"conditions": "100 nmol/kg s.c. once per day for 8 weeks"}, "[9]": {"conditions": "100 nmol/kg s.c. once per day for 8 weeks, untreated right femur"}, "[10]": {"conditions": "10 nmol/kg, 8-week administration, left femur fracture site, grade 0-5, mean ± SD, N=10"}, "[11]": {"conditions": "100 nmol/kg, 8-week administration, left femur fracture site, grade 0-5, mean ± SD, N=10"}, "[12]": {"conditions": "100 nmol/kg, 8 weeks, compared to the control group"}}, "note": "Several values for one entry are separate records, joined by “and”; a condition that tells them apart may be missing. Equal values may be shown once.", "data": [{"substance": "CNP derivative A: CNP (1-22) Ghrelin (12-28, E17D): SEQ ID NO: 13; SEQ ID NO: 157 of US 2010-305031 (GLSKGCFGLKLDRIGSMSGLGCVQQRKDSKKPPAKLQPR; Chimeric CNP J (SEQ ID NO157) of US2010-305031 and WO2009/142307, and CNP derivative A of current invention.)", "values": [{"measurement": "Break deformation", "setting": "rat femur fracture model [1]; [4]", "value": "1.15 ± 0.58", "unit": "mm"}, {"measurement": "Break energy", "setting": "rat femur fracture model [1]; [4]", "value": "45.91 ± 26.15", "unit": "N.mm"}, {"measurement": "Break strength", "setting": "rat femur fracture model [1]; [4]", "value": "72.05 ± 30.40", "unit": "N"}, {"measurement": "Maximum load", "setting": "rat femur fracture model [1]; [4]", "value": "81.98 ± 34.64", "unit": "N"}, {"measurement": "Stiffness (Δ70%-20%)", "setting": "rat femur fracture model [1]; [4]", "value": "138.36 ± 89.14", "unit": "N/mm"}, {"measurement": "Break deformation, left/right ratio", "setting": "rat femur fracture model [1]; [5]", "value": "1.15 ± 0.57"}, {"measurement": "Break energy, left/right ratio", "setting": "rat femur fracture model [1]; [5]", "value": "0.75 ± 0.33"}, {"measurement": "Break strength, left/right ratio", "setting": "rat femur fracture model [1]; [5]", "value": "0.80 ± 0.33"}, {"measurement": "Maximum load, left/right ratio", "setting": "rat femur fracture model [1]; [5]", "value": "0.86 and 0.86 ± 0.35"}, {"measurement": "Stiffness (Δ70%-20%), left/right ratio", "setting": "rat femur fracture model [1]; [5]", "value": "0.75 ± 0.48"}, {"measurement": "Break deformation", "setting": "rat femur fracture model [1]; [6]", "value": "0.99 ± 0.15", "unit": "mm"}, {"measurement": "Break energy", "setting": "rat femur fracture model [1]; [6]", "value": "59.55 ± 12.33", "unit": "N.mm"}, {"measurement": "Break strength", "setting": "rat femur fracture model [1]; [6]", "value": "89.22 ± 6.58", "unit": "N"}, {"measurement": "Maximum load", "setting": "rat femur fracture model [1]; [6]", "value": "95.08 ± 5.29", "unit": "N"}, {"measurement": "Stiffness (Δ70%-20%)", "setting": "rat femur fracture model [1]; [6]", "value": "187.11 ± 32.64", "unit": "N/mm"}, {"measurement": "Break deformation", "setting": "rat femur fracture model [1]; [7]", "value": "1.04 ± 0.45", "unit": "mm"}, {"measurement": "Break energy", "setting": "rat femur fracture model [1]; [7]", "value": "53.90 ± 24.24", "unit": "N.mm"}, {"measurement": "Break strength", "setting": "rat femur fracture model [1]; [7]", "value": "80.02 ± 15.97", "unit": "N"}, {"measurement": "Maximum load", "setting": "rat femur fracture model [1]; [7]", "value": "87.59 ± 19.00", "unit": "N"}, {"measurement": "Stiffness (Δ70%-20%)", "setting": "rat femur fracture model [1]; [7]", "value": "162.09 ± 105.67", "unit": "N/mm"}, {"measurement": "Break deformation, left/right ratio", "setting": "rat femur fracture model [1]; [8]", "value": "1.02 ± 0.38"}, {"measurement": "Break energy, left/right ratio", "setting": "rat femur fracture model [1]; [8]", "value": "0.90 and 0.90 ± 0.36"}, {"measurement": "Break strength, left/right ratio", "setting": "rat femur fracture model [1]; [8]", "value": "1.06 ± 0.33"}, {"measurement": "Maximum load, left/right ratio", "setting": "rat femur fracture model [1]; [8]", "value": "1.03 and 1.03 ± 0.28"}, {"measurement": "Stiffness (Δ70%-20%), left/right ratio", "setting": "rat femur fracture model [1]; [8]", "value": "0.85 ± 0.64"}, {"measurement": "Break deformation", "setting": "rat femur fracture model [1]; [9]", "value": "1.01 ± 0.17", "unit": "mm"}, {"measurement": "Break energy", "setting": "rat femur fracture model [1]; [9]", "value": "60.82 ± 13.73", "unit": "N.mm"}, {"measurement": "Break strength", "setting": "rat femur fracture model [1]; [9]", "value": "77.75 ± 10.46", "unit": "N"}, {"measurement": "Maximum load", "setting": "rat femur fracture model [1]; [9]", "value": "86.89 ± 10.96", "unit": "N"}, {"measurement": "Stiffness (Δ70%-20%)", "setting": "rat femur fracture model [1]; [9]", "value": "200.64 ± 43.22", "unit": "N/mm"}, {"measurement": "Break energy in a fracture site of the left femur, dose dependence", "setting": "rat femur fracture model [1]; 10 and 100 nmol/kg s.c. once per day for 8 weeks, versus vehicle", "value": "increased CNP derivative A-dose dependently"}, {"measurement": "Callus Amount", "setting": "rat femur fracture model [2]; [10]", "value": "2.1 ± 1.0", "unit": "Grade"}, {"measurement": "Callus Cartilage", "setting": "rat femur fracture model [2]; [10]", "value": "1.5 ± 2.0", "unit": "Grade"}, {"measurement": "Callus Continuity", "setting": "rat femur fracture model [2]; [10]", "value": "3.2 ± 2.1", "unit": "Grade"}, {"measurement": "Cortical bone/bone marrow areas Cancellous bone", "setting": "rat femur fracture model [2]; [10]", "value": "2.9 ± 1.7", "unit": "Grade"}, {"measurement": "Cortical bone/bone marrow areas Cartilage", "setting": "rat femur fracture model [2]; [10]", "value": "0.9 ± 1.7", "unit": "Grade"}, {"measurement": "Cortical bone/bone marrow areas Connective tissue", "setting": "rat femur fracture model [2]; [10]", "value": "0.7 ± 1.6", "unit": "Grade"}, {"measurement": "Cortical bone/bone marrow areas Osteoclasts", "setting": "rat femur fracture model [2]; [10]", "value": "0.6 ± 1.1", "unit": "Grade"}, {"measurement": "Callus Amount", "setting": "rat femur fracture model [2]; [11]", "value": "2.3 ± 1.2", "unit": "Grade"}, {"measurement": "Cortical bone/bone marrow areas Cancellous bone", "setting": "rat femur fracture model [2]; [11]", "value": "3.0 ± 1.1", "unit": "Grade"}, {"measurement": "Cortical bone/bone marrow areas Continuity", "setting": "rat femur fracture model [2]; [11]", "value": "2.7 ± 1.8", "unit": "Grade"}, {"measurement": "Grade of cartilage formation", "setting": "rat femur fracture model [2]; [12]", "value": "tendency for a decreasing grade of cartilage formation"}, {"measurement": "Grade of ossification of the callus", "setting": "rat femur fracture model [2]; [12]", "value": "tendency for an increasing grade of ossification of the callus"}, {"measurement": "Repair of the bone cut region", "setting": "rat femur fracture model [2]; overall conclusion of tissue observation, 8 weeks after fracture", "value": "promoted"}, {"measurement": "Continuity of the cortical bone in soft X-ray images of femurs", "setting": "rat femur fracture model [3]", "value": "tendency for enhanced continuity of the cortical bone"}, {"measurement": "Remaining fracture line in soft X-ray images of femurs", "setting": "rat femur fracture model [3]", "value": "decreasing tendency for the fracture line to remain"}, {"measurement": "Gene expression level of Sox9 in fractured left femur", "setting": "Sox9 gene", "value": "this high level was maintained"}]}]}
